Assay results taken from PMC7269486, “MK-571, a Cysteinyl Leukotriene Receptor 1 Antagonist, Inhibits Hepatitis C Virus Replication” (Antimicrobial Agents and Chemotherapy, 2020).
Values joined by “and” are separate entries in the source; they are usually repeats but may differ in a detail not shown here. Equal values may be shown once. “Also recorded” adds a separate entry of the source. Read-outs that look alike come from different tables or passages of the source.

What was measured:
[1] = system: HCV genotype 1b subgenomic replicon; assay: Anti-HCV activity in the subgenomic replicon model (HCV-SGR RNA by RT-qPCR in Huh7.5-SGR cells); type: cell-based, Hepatitis C virus; conditions: for effect on the anti-HCV activity of MK-571: compound added to MK-571 (10 or 50 μM); for effect on the anti-HCV activity of MK-571 / effect on HCV-SGR RNA levels / replication: increasing concentrations; for effect on HCV-SGR RNA levels / replication: compound alone; for effect of MRP-1 inhibitor on MK-571 anti-HCV activity: added to MK-571 (probenecid 1 mM), data not shown
Method: Plasmid I389-Neo/NS3-3′/5.1, which contains a neomycin resistance gene and an HCV genotype 1b subgenome, was kindly provided by Ralf Bartenschlager (University of Heidelberg, Heidelberg, Germany). This plasmid was transfected into Huh7.5 cells to generate Huh7.5-SGR cells stably harboring an HCV genotype 1b subgenomic replicon (SGR).
Huh7.5 cells stably harboring an HCV genotype 1b bicistronic replicon (I389-Neo/NS3-3′/5.1) were seeded at the density of 5,000 cells/well in a 96-well plate. The cells were treated for 48 h with the tested compounds diluted in complete DMEM containing 1% dimethyl sulfoxide (DMSO) with 0.5 mg/ml of G418. Total RNA was extracted using the RNeasy 96 kit (Qiagen, Hilden, Germany). HCV-SGR RNA levels were measured by reverse transcriptase quantitative PCR (RT-qPCR) using the TaqMan technology with HCV-specific primers (forward primer, 5′-CGC CCA AAC CAG AAT ACG A-3′; and reverse primer, 5′-AGATAGTACACCCTTTTGCCAGATG-3′) and a qPCR probe (5′-6-carboxyfluorescein [FAM]-CAA TGT GTC AGT CGG-6-carboxytetramethylrhodamine [TAMRA]-0.3′). The data were analyzed with the 2^−ΔΔ^CT method, with all samples normalized to glyceraldehyde-3-phosphate dehydrogenase (GAPDH) mRNA. All experiments were performed in triplicate. HCV-SGR RNA relative quantities were plotted against compound concentrations and fitted with a four-parameter logistic curve with SigmaPlot v11 software. EC50s were determined from the curves.

[2] = system: HCV-J6/JFH1 (genotype 2a/2a full-length infectious model); assay: Antiviral activity in the HCV infectious model (luciferase reporter); type: cell-based, Hepatitis C virus; conditions: Huh7.5 cells infected with J6/JFH1, increasing concentrations, 48 h after infection
Method: The anti-HCV activity of MK-571 was then confirmed in a chimeric genotype 2a/2a HCV full-length infectious model (HCV-J6/JFH1) containing a luciferase reporter gene. Huh7.5 cells were infected with HCV-J6/JFH1 in the presence of an increasing concentration of MK-571, and luciferase activity was quantified 48 h after infection. […] However, MK-571 anti-HCV activity appeared higher in the genotype 1b HCV-SGR than the genotype 2a HCV full-length infectious model (Fig. 2D).
Huh7.5 cells were incubated 24 h before infection. Then, cells were infected with HCV (J6/JFH1 strain) at an mutiplicity of infection (MOI) of 0.2 during 8 h in the presence of drugs. HCV-infected cells were washed with phosphate-buffered saline (PBS) and incubated for 48 h in fresh medium containing the drugs. Then, luciferase activity was measured and plotted against compound concentrations.

[3] = system: Huh7.5-SGR cells harboring HCV-SGR with neomycin resistance gene; type: cell-based, Hepatitis C virus; conditions: 100 μM MK-571, 2 weeks, no G418
Description: FIG 2 Anti-HCV activity of MK-571. (A) Dose-response curve and (B) fold decrease of MK-571 antiviral activity in Huh7.5 cells stably expressing an HCV genotype 1b subgenomic replicon. Data are shown as means ± SD from at least two independent experiments performed in triplicate. […]
We next examined HCV-SGR clearance during 2 weeks of treatment with MK-571. […]

[4] = Cytotoxicity assay (CellTiter 96 AQueous One); type: cell-based; conditions: human
Method: Assessment of the compound cytotoxicity was performed with the CellTiter 96 AQueous One assay (Promega), according to the manufacturer’s instructions. Huh7.5 cells were seeded at a density of 5,000 cells/well in a 96-well plate and incubated 24 h before addition of increasing concentrations of the indicated compounds. After 48 h, cells were incubated 4 h in the presence of the CellTiter 96 AQueous One solution reagent, and absorbance was measured at 490 nm.

[5] = Huh7.5 cells, 48 h, read-out: CC50 in Huh7.5 cells

| Compound | CC50 at 48 h [4, 5] [µM] | effect on the anti-HCV activity of MK-571 ([1]; Huh7.5-SGR cells) | effect on HCV-SGR RNA levels / replication ([1]; Huh7.5-SGR cells) | also measured |
| --- | --- | --- | --- | --- |
| CN(C)C(=O)CCSC(SCCC(=O)O)c1cccc(/C=C/c2ccc3ccc(Cl)cc3n2)c1 (stereo not shown) [MK-571] | > 100 | – | – | fold decrease of HCV-SGR RNA levels ([1]; 50 μM MK-571 alone, Huh7.5-SGR cells): 12 fold and ~11 fold; fold increase of the anti-HCV effect of telaprevir ([1]; 50 μM MK-571 in combination with 1 μM telaprevir, Huh7.5-SGR cells): approximately 3 fold; antiviral effect compared with telaprevir ([1]; 50 μM MK-571 vs 1 μM telaprevir, Huh7.5-SGR cells): equivalent to the effect of 1 μM of telaprevir; EC50 ([1]; Hepatitis C virus, Huh7.5, 48 h, read-out: EC50 for decrease of HCV-SGR RNA): 9 ± 0.3 µM; maximum HCV RNA level reduction ([1]; Huh7.5-SGR cells, genotype 1b replicon): ~1 log10; effect on HCV-J6/JFH1 replication (luciferase activity) [2]: dose-dependent decrease of HCV-J6/JFH1 RNA replication; also recorded: reduced the replication of the HCV full-length J6/JFH1 model in a dose-dependent manner; cell growth in the absence of G418 [3]: cell growth was not significantly affected |
| O=C(O)c1ccccc1Nc1cccc(OCc2ccc3ccccc3n2)c1 [SR2640] | 33.4 ± 3.9 | completely reversed its antiviral effect; also recorded: not only reversed its anti-HCV activity but also increased HCV replication at the highest concentrations tested | increased HCV-SGR RNA levels in a dose-dependent manner | maximum increase of HCV-SGR RNA levels ([1]; SR2640 alone, at 20 μM, Huh7.5-SGR cells): 11 fold |
| CCC[C@H](NC(=O)[C@@H]1[C@H]2CCC[C@H]2CN1C(=O)[C@@H](NC(=O)[C@@H](NC(=O)c1cnccn1)C1CCCCC1)C(C)(C)C)C(=O)C(=O)NC1CC1 [Telaprevir] | – | – | – | CC50 at 48 h [4]: > 20 µM |
| CCCCC/C=C\C\C=C/C=C/C=C/[C@@H](SC[C@H](N)C(=O)NCC(=O)O)[C@@H](O)CCCC(=O)O [LTD4] | – | completely reversed its antiviral effect; also recorded: reversed the antiviral effect of 50 μM of MK-571 in a dose-dependent manner | did not exert any effect on HCV replication | concentration achieving complete reversion of the antiviral effect of MK-571 ([1]; in the presence of 50 μM MK-571, Huh7.5-SGR cells): 1 µM |
| apigenin homodimer [APN] | – | – | – | effect of MRP-1 inhibitor on MK-571 anti-HCV activity [1]: lack of effect on MK-571 antiviral activity; effect on HCV-SGR RNA levels ([1]; apigenin homodimer 0.1 μM alone, Huh7.5-SGR cells): had no effect on HCV replication; also recorded: none of these two compounds reduced HCV-SGR RNA levels; also recorded: lack of anti-HCV activity |
| CC(c1cc2ccccc2s1)N(O)C(N)=O (stereo not shown) [zileuton] | – | – | None of them affected HCV-SGR replication | – |
| COc1cc(C(=O)NS(=O)(=O)c2ccccc2C)ccc1Cc1cn(C)c2ccc(NC(=O)OC3CCCC3)cc12 [Zafirlukast] | > 100 | completely reversed its antiviral effect; also recorded: full reversion achieved at the highest dose tested | modest proviral effect on HCV RNA replication | – |
| CC(C)c1ccc2c(c1)c(SC(C)(C)C)c(CC(C)(C)C(=O)O)n2Cc1ccc(Cl)cc1 [MK-886] | – | – | None of them affected HCV-SGR replication | – |
| CCC(CC)(CC(=O)Nc1cccc(/C=C/c2nc(C3CCC3)cs2)c1)C(=O)O [Cinalukast] | > 100 | completely reversed its antiviral effect; also recorded: full reversion achieved at the highest dose tested | modest proviral effect on HCV RNA replication | – |
| CCCN(CCC)S(=O)(=O)c1ccc(C(=O)O)cc1 [probenecid] | – | – | – | effect of MRP-1 inhibitor on MK-571 anti-HCV activity [1]: did not modify its anti-HCV activity; also recorded: lack of effect on MK-571 antiviral activity; effect on HCV-SGR RNA levels ([1]; probenecid 1 mM alone, Huh7.5-SGR cells): had no effect on HCV replication; also recorded: none of these two compounds reduced HCV-SGR RNA levels; also recorded: lack of anti-HCV activity |
